# Legend:
# [1] = tested on: progranulin levels in cortical neuron cultures; assay: Dot blot / immunoblotting of progranulin in primary cortical neuron cultures; assay type: cell-based, Murine; settings: primary cortical neurons, 24 hours; for accumulation of progranulin: dot blot (FIG. 5), repeat triplicate experiments
# Experimental: (§1) Murein E14-E15 cortices were dissected and removed to Hanks Balanced Salt Solution (HBSS) The tissue was dissociated with 0.05% trypsin in HBSS for 10 min at 37° C., and then filtered through a 70 µm cell strainer. Cells were plated on poly-D-lysine (PDL)-coated plates at −3.2×10^5 cells/cm^2 in CEMEM (10% fetal bovine serum, 10% horse serum, 2 mM L-glutamine, and 1% penicillin/streptomycin) for 45 min in a 37° C. humidified tri-gas incubator (5% CO2 and 5% 02). The medium was changed to Neurobasal medium (Invitrogen, Carlsbad, Calif.) with a B27 supplement (Gibco) containing antioxidants (NB plus AO) to specifically enhance neuronal growth. After 3 days the media were half changed with NB plus AO. All treatments were done at day 5 with complete media change containing vehicle, SAHA (suberoyl anilide hydroxamic acid; Vorinostat), and test compounds at final concentrations ranging from 125 μM to 1 nM for 24 hours.
# Culture medium was collected and cells were lysed in lysis buffer containing 50 mM Tris-HCl, pH 7.5, 150 mM sodium chloride, 1% Nonidet P-40, 0.5% sodium deoxycholate, 1 mM sodium orthovanadate, 5 mM sodium fluoride, and a protease inhibitor cocktail. Sample concentrations were determined to ensure equal loading, placed in Laemmli sample buffer containing B-mercaptoethanol, and denatured at 100° C. for 5 min. Proteins were separated on a 4% stacking and 12% resolving SDS-PAGE Tris-glycine gel, transferred to polyvinylidene difluoride membrane (Millipore), and blocked in 5% instant milk or 5% bovine serum albumin in Tris-buffered saline with 0.1% Tween for 1 hour. For immunoblotting, primary antibodies were incubated overnight at 4° C. with 1/1000 tubulin (Developmental Studies Hybridoma), and 1/1000 Progranulin (ProteinTech Group). 15 μL of media was loaded from each sample. Ponceau red staining on the membrane before immunological probing was used to show equal loading to look for secreted progranulin and survival of motor neurons protein.
# primary cortical neurons = assay: MTS cell viability assay; assay type: cell-based, murine; settings: 24 hours
# Experimental: as §1, with “hours. The MTS non-radioactive cell viability assay employed [3-(4,5-dimethylthiazol-2-yl)-5-(3-carboxymethoxyphenyl)-2-(4-sulfophenyl)-2H-tetrazolium, inner salt with phenazine methosulfate added as an electron coupling reagent, MTS is bioreduced by cells into a formazan product that is soluble in tissue culture medium and can be measured at 490 nm. MTS was performed at 24 hours per manufacturer recommendations (Promega, G5421).” for “hours.”
# [2] = tested on: survival motor neuron (SMN) protein in cortical neurons; assay: Immunoblotting of SMN protein in cortical neuron cultures; assay type: cell-based, murine; settings: immunoblot against tubulin (FIG. 6)
# Experimental: as §1
# Culture medium was collected and cells were lysed in lysis buffer containing 50 mM Tris-HCl, pH 7.5, 150 mM sodium chloride, 1% Nonidet P-40, 0.5% sodium deoxycholate, 1 mM sodium orthovanadate, 5 mM sodium fluoride, and a protease inhibitor cocktail. Sample concentrations were determined to ensure equal loading, placed in Laemmli sample buffer containing B-mercaptoethanol, and denatured at 100° C. for 5 min. […]
SMILES,effective dose for progranulin accumulation [1],accumulation of progranulin [1],toxicity to the neurons (primary cortical neurons),cellular concentration of survival motor neuron (SMN) protein [2]
"COc1ccc(Cl)cc1NC(=O)CS(=O)(=O)c1ccccc1 [Compound 3, 2-(benzenesulfonyl)-N-(5-chloro-2-methoxyphenyl)acetamide]",effective in extremely low doses,elicited accumulation of progranulin,apparently nontoxic,–
"COc1ccc(-c2c(C)nn3c(=O)cc(Cc4ccccc4)[nH]c23)cc1OC [Compound 1, 5-benzyl-3-(3,4-dimethoxyphenyl)-2-methyl-4H,7H-pyrazolo[1,5,a]pyrimidin-7-one]",effective in extremely low doses,elicited accumulation of progranulin,apparently nontoxic,–
"CC(=O)N(c1ccc(Oc2ccccc2)cc1)C1C=CS(=O)(=O)C1 (centres unmarked) [Compound 2, N-(1,1-dioxo-2,3-dihydro-1-[…]^6-thiophene-3-yl)-N-(4-phenoxyphenyl)acetamide]",–,–,–,dramatically increase
"CCN(CC(=O)Nc1ccccc1C)S(=O)(=O)c1ccc(OC)cc1 [Compound 4, 2-(N-ethyl-4-methoxybenzenesulfonamido)-N-(2-methylphenyl) acetamide]",–,–,–,dramatically increase
